For one substance, inhibition of collagenase results are on record in US20030032602A1, “Methods and compositions for collagen homeostasis” (priority 2001, published 2003).

This experiment relates to collagenase from Clostridium histolyticum (EC 3.4.24.3). The experiment is described as follows: Inhibition of collagenase with fluorophor labeled Gelatin-FL, Collagen I-FL and Collagen IV-FL as substrate. The format is biochemical. The settings on record: substrates collagen I, collagen IV and denatured collagen (gelatin), fluorescence-labeled; incubation 60 min at 37° C.; FIGS. 1A-1C. As for the experimental part: The following examples have been provided to illustrate various aspects of the inventive subject matter. More particularly, all examples employed commercially available collagenase from Clostridium histolyticum (EC 3.4.24.3; Fluka Chemie AG, Switzerland) and commercially available collagen-I and collagen-IV (Molecular Probes, OR, USA).
Inhibition of collagenase from Clostridium histolyticum was determined using fluorophor labeled Gelatin-FL, Collagen I-FL and Collagen IV-FL as substrate. Negative control was Mg ascorbyl-2-phosphate (MAP), and exemplary boron-containing compounds were AB(F-D) and AB (V-E), which represented two different batches of potassium ascorbato-borates. The assay was performed under standard conditions with incubation and of substrate for 60 min at 37° C. and fluorescence was measured in a standard fluorometer. The results of the inhibition experiments are depicted in FIGS. 1A-1C. With respect to the inhibitors, the first column represents the negative control MAP, while the second and third columns represent exemplary boron-containing compounds AB(F-D) (potassium ascorbato-borate) and AB(V-E) (potassium ascorbato-borate). […] Moreover, additional experiments (data not shown) confirmed the inhibitory character of numerous other boron-containing compounds, and especially boron-containing compounds in which borate is complexed by one or more ligands.

For potassium ascorbato-borate [AB(F-D)], the inhibition of collagenase result is “specific inhibitory compounds for collagenase”.
